# Results from ChEMBL document CHEMBL1201862, “PubChem BioAssay data set” (2004).
# Activity calls are given as the source filed them.
# Columns and labels:
# Coagulation factor XII [1] = biological target: T1, Coagulation factor XII (Homo sapiens, UniProt P00748); experiment: Factor XIIa Dose Response Confirmation from Single Well HTS. [Related pubchem assays (depositor defined):AID701]; type: functional
# T1 sequence (P00748 whole entry): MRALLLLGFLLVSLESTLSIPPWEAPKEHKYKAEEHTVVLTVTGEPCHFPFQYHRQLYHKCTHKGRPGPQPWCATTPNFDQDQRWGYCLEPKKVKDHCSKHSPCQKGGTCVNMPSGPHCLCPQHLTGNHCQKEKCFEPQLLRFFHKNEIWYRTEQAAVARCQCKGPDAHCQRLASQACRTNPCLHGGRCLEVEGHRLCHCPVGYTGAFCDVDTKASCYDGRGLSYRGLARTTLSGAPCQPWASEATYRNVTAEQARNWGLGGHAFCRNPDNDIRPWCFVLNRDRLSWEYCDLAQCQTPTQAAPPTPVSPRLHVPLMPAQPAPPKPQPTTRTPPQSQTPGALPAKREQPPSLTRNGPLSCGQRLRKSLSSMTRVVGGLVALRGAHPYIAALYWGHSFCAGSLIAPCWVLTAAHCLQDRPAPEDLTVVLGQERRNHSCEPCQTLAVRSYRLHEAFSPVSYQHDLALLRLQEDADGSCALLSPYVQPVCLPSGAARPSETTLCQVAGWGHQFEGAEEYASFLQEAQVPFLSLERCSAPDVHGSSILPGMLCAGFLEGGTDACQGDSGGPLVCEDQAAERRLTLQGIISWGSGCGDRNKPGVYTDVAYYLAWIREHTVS
# Integrin alpha-4 = Integrin alpha-4 (Homo sapiens, UniProt P13612); experiment: VLA-4 integrin allosteric ligands, SAR follow-up, cell-based, LIBS antibody binding, flow cytometry (AID 488791); type: functional
# Melanocortin receptor 4 = Melanocortin receptor 4 (Homo sapiens, UniProt P32245); type: functional, cell-based;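 note: Cell-based assay with luminescence read-out, confirmatory dose-response testing for agonist activity of biased ligands at MC4R; human U2OS cells with tagged receptor and beta-arrestin; potency of agonists that increase receptor coupling to beta-arrestin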
# [2] = Luminescence Cell-Based Dose Retest to Confirm Inhibitors of Cancer Stem Cells. [Related pubchem assays (depositor defined):AID2717, AID2721]; type: functional; settings: Homo sapiens
# Coagulation factor XII [3] = biological target: T1, Coagulation factor XII; experiment: FXIIa inhibitor potency, concentration-response, biochemical (AID 716); type: functional
# H4 = experiment: Luminescence Cell-Based Dose Response HTS to Identify Activators of 5'UTR Stem-Loop Driven Prion Protein mRNA Translation in H4 Neuroglioblastoma Cells. [Related pubchem assays: 1829 (Project Summary), 1814 (Primary HTS)]; type: functional; settings: Homo sapiens
# 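Throughout, for AC50: cells exposed to compound for roughly 70 hours or longer before luminescence read.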
# Sequence of Integrin alpha-4 (P13612 whole entry): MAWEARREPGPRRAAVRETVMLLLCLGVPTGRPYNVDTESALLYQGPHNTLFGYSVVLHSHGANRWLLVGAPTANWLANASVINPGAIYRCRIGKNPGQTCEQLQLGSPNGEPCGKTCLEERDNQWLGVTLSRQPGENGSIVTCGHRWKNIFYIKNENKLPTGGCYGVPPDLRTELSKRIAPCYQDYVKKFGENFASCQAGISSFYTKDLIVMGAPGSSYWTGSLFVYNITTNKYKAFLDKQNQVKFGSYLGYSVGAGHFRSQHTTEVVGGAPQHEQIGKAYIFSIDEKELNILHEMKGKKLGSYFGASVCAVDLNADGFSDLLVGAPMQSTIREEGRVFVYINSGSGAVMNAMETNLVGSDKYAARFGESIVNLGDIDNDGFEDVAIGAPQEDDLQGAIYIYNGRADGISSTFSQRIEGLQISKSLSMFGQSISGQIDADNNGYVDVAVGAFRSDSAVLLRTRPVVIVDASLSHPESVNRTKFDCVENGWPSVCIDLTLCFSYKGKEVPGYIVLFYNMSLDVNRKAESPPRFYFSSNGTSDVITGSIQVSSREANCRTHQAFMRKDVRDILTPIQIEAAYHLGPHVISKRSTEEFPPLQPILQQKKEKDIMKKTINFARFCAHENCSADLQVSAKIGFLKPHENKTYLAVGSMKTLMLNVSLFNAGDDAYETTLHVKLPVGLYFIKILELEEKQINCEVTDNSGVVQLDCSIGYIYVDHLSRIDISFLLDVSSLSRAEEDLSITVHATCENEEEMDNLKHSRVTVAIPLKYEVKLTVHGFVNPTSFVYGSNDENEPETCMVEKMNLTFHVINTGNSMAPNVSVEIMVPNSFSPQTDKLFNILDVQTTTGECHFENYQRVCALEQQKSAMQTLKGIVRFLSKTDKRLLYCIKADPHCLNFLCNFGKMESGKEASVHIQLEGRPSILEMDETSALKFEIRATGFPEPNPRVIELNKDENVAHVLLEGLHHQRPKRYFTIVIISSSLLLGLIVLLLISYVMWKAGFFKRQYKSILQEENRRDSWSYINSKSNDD
# Sequence of Melanocortin receptor 4 (P32245 whole entry): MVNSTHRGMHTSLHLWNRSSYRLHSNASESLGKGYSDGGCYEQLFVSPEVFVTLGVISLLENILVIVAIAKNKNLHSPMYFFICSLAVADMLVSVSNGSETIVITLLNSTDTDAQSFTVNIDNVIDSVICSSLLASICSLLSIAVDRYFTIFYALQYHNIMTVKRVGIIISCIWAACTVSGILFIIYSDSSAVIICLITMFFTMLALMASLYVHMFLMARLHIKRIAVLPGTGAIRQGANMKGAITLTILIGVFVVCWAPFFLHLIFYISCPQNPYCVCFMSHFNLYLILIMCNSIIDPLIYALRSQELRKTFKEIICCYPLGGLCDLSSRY
compound,measurement,setting,value
O=C(c1ccc2c(c1)OCO2)N1CCN(c2ccc(F)cc2)CC1,IC50,Coagulation factor XII [1],> 50 µM (inactive)
c1ccc(-c2sc3ccccc3c2-c2ccc(OCCN3CCCC3)cc2)cc1,EC50,Integrin alpha-4,26.1 µM (active)
same,EC50,Melanocortin receptor 4,> 89.2 µM (inactive)
same,AC50,[2],2.21 µM (active)
COc1ccc(Cn2c(C3CC3)nc3ccc(NC(=O)C4CC4)cc3c2=O)cc1,IC50,Coagulation factor XII [3],> 50 µM (inactive)
same,EC50,H4,0.679 µM (active)
